Data: the supplement of paper PMC10627819

Experiments:
B. subtilis 168 [1] = test: Bliss interaction score (quartile over a dose matrix) (fitness difference); higher = more antagonism (negative = synergy)
In short: (§1)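 Quartiles of the Bliss score were taken over technical, biological and donor/recipient replicates. That score is observed fitness minus the product of the single-drug fitness values, which were inferred from combination data. Fitness itself is OD595 at entry into stationary phase divided by the plate's robust no-drug mean, with a cap at 1.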

S. aureus Newman [2] = test: as above
In short: as §1

S. pneumoniae D39V [3] = test: as above
In short: as §1

S. aureus DSM 20231 = test: as above
In short: as §1

B. subtilis 168 [4] = test: fitness (endpoint OD595 vs no drug) (fraction); higher = more growth
In short: (§2)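 Fitness compares growth at the stationary-phase transition with the robust mean of no-drug control wells, as a ratio of optical densities. The ratio is capped at 1. Wells of 384-well plates held 30 µl, or 55 µl for S. pneumoniae, inoculated at OD595 0.01. Readings at OD595 every 30 min for 14 h at 37 °C were corrected against the first reading.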

S. aureus Newman [5] = test: as above
In short: as §2

S. pneumoniae D39V [6] = test: as above
In short: as §2
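For Bliss interaction score (quartile over a dose matrix) in this document: first quartile when negative (synergy) and third quartile when positive (antagonism).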

CC1=C(C(=O)O)N2C(=O)[C@@H](NC(=O)[C@H](N)c3ccccc3)[C@H]2SC1 [Cephalexin] + CN[C@@H]1[C@H](O)[C@H](NC)[C@H]2O[C@@]3(O)C(=O)C[C@@H](C)O[C@H]3O[C@@H]2[C@H]1O [Spectinomycin]
Conditions	Bliss interaction score
B. subtilis 168 [1]	0.0659
S. aureus DSM 20231	0.0503
S. aureus Newman [2]	0.0839
S. pneumoniae D39V [3]	0.0578

fitness
Conditions	first compound 0.125 µg/mL	first compound 0.25 µg/mL	first compound 0.5 µg/mL	first compound 1 µg/mL
B. subtilis 168 [4], partner 2 µg/mL	≥ 1	0.933	0.978	–
B. subtilis 168 [4], partner 4 µg/mL	0.981	0.978	≥ 1	–
B. subtilis 168 [4], partner 8 µg/mL	0.905	0.928	0.884	–
S. aureus Newman [5], partner 4 µg/mL	–	0.904	0.951	0.951
S. aureus Newman [5], partner 8 µg/mL	–	0.982	≥ 1	≥ 1
S. aureus Newman [5], partner 16 µg/mL	–	0.949	0.957	≥ 1

fitness, one replicate
Conditions	first compound 0.125 µg/mL	first compound 0.25 µg/mL	first compound 0.5 µg/mL	first compound 1 µg/mL	first compound 2 µg/mL	first compound 4 µg/mL
S. aureus Newman [5], partner 16 µg/mL	–	–	–	–	0.969	–
S. aureus Newman [5], partner 32 µg/mL	–	–	0.681	0.713	0.651	–
S. aureus Newman [5], partner 64 µg/mL	–	–	0.127	0.071	0.1	–
S. pneumoniae D39V [6], partner 4 µg/mL	0.874	0.91	0.993	0.474	0.0025	0
S. pneumoniae D39V [6], partner 8 µg/mL	0.892	0.884	0.908	0.587	0.0549	0.0577
S. pneumoniae D39V [6], partner 16 µg/mL	0.875	0.82	0.859	–	–	–

CC1=C(C(=O)O)N2C(=O)[C@@H](NC(=O)[C@H](N)c3ccccc3)[C@H]2SC1 [Cephalexin] + CN[C@@H]1[C@H](O[C@H]2[C@H](O[C@H]3[C@H](O)[C@@H](O)[C@H](N=C(N)N)[C@@H](O)[C@@H]3N=C(N)N)O[C@@H](C)[C@]2(O)C=O)O[C@@H](CO)[C@H](O)[C@H]1O [Streptomycin]
Conditions	Bliss interaction score
B. subtilis 168 [1]	0.0604
S. aureus DSM 20231	-0.157
S. aureus Newman [2]	0.0561
S. pneumoniae D39V [3]	-0.153

fitness
Conditions	first compound 0.125 µg/mL	first compound 0.25 µg/mL	first compound 0.5 µg/mL	first compound 1 µg/mL	first compound 2 µg/mL	first compound 4 µg/mL
B. subtilis 168 [4], partner 2 µg/mL	0.94	0.923	0.932	–	–	–
B. subtilis 168 [4], partner 8 µg/mL	0.031	0.0416	0.0533	–	–	–
S. aureus Newman [5], partner 1 µg/mL	–	0.944	0.967	0.987	–	–
S. aureus Newman [5], partner 2 µg/mL	–	0.976	≥ 1	≥ 1	–	–
S. pneumoniae D39V [6], partner 4 µg/mL	–	–	–	0.454	0.0189	0.0459
S. pneumoniae D39V [6], partner 8 µg/mL	–	–	–	0.408	0.0381	0.0337

fitness, S. pneumoniae D39V [6], one replicate
Conditions	first compound 0.125 µg/mL	first compound 0.25 µg/mL	first compound 0.5 µg/mL	first compound 1 µg/mL	first compound 2 µg/mL	first compound 4 µg/mL
partner 2 µg/mL	0.86	0.913	0.953	0.386	0.0034	0.0206
partner 4 µg/mL	0.901	0.91	0.911	–	–	–
partner 8 µg/mL	0.961	0.898	0.896	–	–	–
partner 16 µg/mL	–	–	–	0.198	0.0581	0.0194

CC1=C(C(=O)O)N2C(=O)[C@@H](NC(=O)[C@H](N)c3ccccc3)[C@H]2SC1 [Cephalexin] + COc1c(N2C[C@@H]3CCCN[C@@H]3C2)c(F)cc2c(=O)c(C(=O)O)cn(C3CC3)c12 [Moxifloxacin]
Conditions	Bliss interaction score
B. subtilis 168 [1]	0.0149
S. aureus DSM 20231	-0.0585
S. aureus Newman [2]	0.07
S. pneumoniae D39V [3]	-0.0683

Conditions	fitness
B. subtilis 168 [4], first compound 0.125 µg/mL, partner 2 µg/mL	0.0423
B. subtilis 168 [4], first compound 0.125 µg/mL, partner 4 µg/mL	0.0453
B. subtilis 168 [4], first compound 0.125 µg/mL, partner 8 µg/mL	0.0194
B. subtilis 168 [4], first compound 0.25 µg/mL, partner 0.0312 µg/mL	0.0487
B. subtilis 168 [4], first compound 0.25 µg/mL, partner 0.0625 µg/mL	0.0549
B. subtilis 168 [4], first compound 0.25 µg/mL, partner 0.125 µg/mL	0.0364
B. subtilis 168 [4], first compound 0.25 µg/mL, partner 2 µg/mL	0.0473
B. subtilis 168 [4], first compound 0.25 µg/mL, partner 4 µg/mL	0.0392
B. subtilis 168 [4], first compound 0.25 µg/mL, partner 8 µg/mL	0.027
B. subtilis 168 [4], first compound 0.5 µg/mL, partner 0.0312 µg/mL	0.0585
B. subtilis 168 [4], first compound 0.5 µg/mL, partner 0.0625 µg/mL	0.0464
B. subtilis 168 [4], first compound 0.5 µg/mL, partner 0.125 µg/mL	0.0607
B. subtilis 168 [4], first compound 0.5 µg/mL, partner 2 µg/mL	0.0441
B. subtilis 168 [4], first compound 0.5 µg/mL, partner 4 µg/mL	0.0483
B. subtilis 168 [4], first compound 0.5 µg/mL, partner 8 µg/mL	0.0385
B. subtilis 168 [4], first compound 1 µg/mL, partner 0.0312 µg/mL	0.0562
B. subtilis 168 [4], first compound 1 µg/mL, partner 0.0625 µg/mL	0.0588
B. subtilis 168 [4], first compound 1 µg/mL, partner 0.125 µg/mL	0.0618
S. aureus Newman [5], first compound 0.25 µg/mL, partner 0.0075 µg/mL	0.788
S. aureus Newman [5], first compound 0.5 µg/mL, partner 0.0075 µg/mL	0.812
S. aureus Newman [5], first compound 0.5 µg/mL, partner 0.015 µg/mL	0.691
S. aureus Newman [5], first compound 1 µg/mL, partner 0.0075 µg/mL	0.807
S. pneumoniae D39V [6], first compound 4 µg/mL, partner 0.005 µg/mL	0.0502
S. pneumoniae D39V [6], first compound 4 µg/mL, partner 0.01 µg/mL	0.059
S. pneumoniae D39V [6], first compound 4 µg/mL, partner 0.02 µg/mL	0.0505

fitness, S. pneumoniae D39V [6], one replicate
Conditions	first compound 0.125 µg/mL	first compound 0.25 µg/mL	first compound 0.5 µg/mL
partner 0.0037 µg/mL	0.856	0.855	0.836
partner 0.0075 µg/mL	0.948	0.843	0.819
partner 0.015 µg/mL	0.839	0.813	0.808

CC1=C(C(=O)O)N2C(=O)[C@@H](NC(=O)[C@H](N)c3ccccc3)[C@H]2SC1 [Cephalexin] + COc1ccc(C[C@H](N)C(=O)N[C@H]2[C@@H](O)[C@H](n3cnc4c(N(C)C)ncnc43)O[C@@H]2CO)cc1 [Puromycin]
Conditions	Bliss interaction score
B. subtilis 168 [1]	0.0628
S. aureus DSM 20231	0.0696
S. aureus Newman [2]	0.043
S. pneumoniae D39V [3]	-0.101

fitness
Conditions	first compound 0.125 µg/mL	first compound 0.25 µg/mL	first compound 0.5 µg/mL	first compound 1 µg/mL
B. subtilis 168 [4], partner 0.39 µg/mL	0.944	0.912	0.869	–
B. subtilis 168 [4], partner 0.78 µg/mL	0.952	0.891	0.935	–
B. subtilis 168 [4], partner 1.56 µg/mL	0.921	0.888	0.938	–
S. aureus Newman [5], partner 0.39 µg/mL	–	0.991	≥ 1	0.99
S. aureus Newman [5], partner 0.78 µg/mL	–	≥ 1	≥ 1	≥ 1
S. aureus Newman [5], partner 1.56 µg/mL	–	≥ 1	0.976	0.991

fitness, S. pneumoniae D39V [6], one replicate
Conditions	first compound 0.125 µg/mL	first compound 0.25 µg/mL	first compound 0.5 µg/mL	first compound 1 µg/mL	first compound 2 µg/mL	first compound 4 µg/mL
partner 1 µg/mL	≥ 1	≥ 1	≥ 1	0.158	0.0772	0.0589
partner 2 µg/mL	0.939	0.926	≥ 1	0.3	0.0861	0.055
partner 4 µg/mL	0.798	0.883	0.893	0.0824	0.0686	0.047
